Assay: Short-term stability in spiked pooled human plasma (bench-top, 4 °C, 56 °C)

SMILES: Cc1cc(Nc2ncc(Cl)c(Nc3ccccc3S(=O)(=O)C(C)C)n2)c(OC(C)C)cc1C1CCNCC1 [Ceritinib]
- Short-time stability (1h, 56°C) Accuracy [%] (validation standard 2xLLOV): 39.7%
- Short-time stability (24h, 4°C, without daylight) Accuracy [%] (validation standard 2xLLOV): 95.5%
- Short-time stability (24h, RT, with daylight) Accuracy [%] (validation standard 2xLLOV): 66.9%
- Short-time stability (24h, RT, without daylight) Accuracy [%] (validation standard 2xLLOV): 72.2%
- Short-time stability (1h, 56°C) Accuracy [%] (validation standard LLOV): 42.5%
- Short-time stability (24h, 4°C, without daylight) Accuracy [%] (validation standard LLOV): 102.1%
- Short-time stability (24h, RT, with daylight) Accuracy [%] (validation standard LLOV): 70.9%
- Short-time stability (24h, RT, without daylight) Accuracy [%] (validation standard LLOV): 77.7%
- Short-time stability (1h, 56°C) Accuracy [%] (validation standard MOV): 34.6%
- Short-time stability (24h, 4°C, without daylight) Accuracy [%] (validation standard MOV): 93.9%
- Short-time stability (24h, RT, with daylight) Accuracy [%] (validation standard MOV): 84.1%
- Short-time stability (24h, RT, without daylight) Accuracy [%] (validation standard MOV): 92.2%
- Short-time stability (1h, 56°C) Accuracy [%] (validation standard ULOV): 32.0%
- Short-time stability (24h, 4°C, without daylight) Accuracy [%] (validation standard ULOV): 92.7%
- Short-time stability (24h, RT, with daylight) Accuracy [%] (validation standard ULOV): 91.8%
- Short-time stability (24h, RT, without daylight) Accuracy [%] (validation standard ULOV): 96.2%

SMILES: CNC(=O)c1ccc(N2C(=S)N(c3cnc(C#N)c(C(F)(F)F)c3)C(=O)C23CCC3)cc1F [Apalutamide]
- Short-time stability (1h, 56°C) Accuracy [%] (validation standard 2xLLOV): 46.5%
- Short-time stability (24h, 4°C, without daylight) Accuracy [%] (validation standard 2xLLOV): 93.0%
- Short-time stability (24h, RT, with daylight) Accuracy [%] (validation standard 2xLLOV): 76.8%
- Short-time stability (24h, RT, without daylight) Accuracy [%] (validation standard 2xLLOV): 80.8%
- Short-time stability (1h, 56°C) Accuracy [%] (validation standard LLOV): 37.6%
- Short-time stability (24h, 4°C, without daylight) Accuracy [%] (validation standard LLOV): 96.9%
- Short-time stability (24h, RT, with daylight) Accuracy [%] (validation standard LLOV): 72.0%
- Short-time stability (24h, RT, without daylight) Accuracy [%] (validation standard LLOV): 75.7%
- Short-time stability (1h, 56°C) Accuracy [%] (validation standard MOV): 41.2%
- Short-time stability (24h, 4°C, without daylight) Accuracy [%] (validation standard MOV): 84.3%
- Short-time stability (24h, RT, with daylight) Accuracy [%] (validation standard MOV): 75.7%
- Short-time stability (24h, RT, without daylight) Accuracy [%] (validation standard MOV): 75.2%
- Short-time stability (1h, 56°C) Accuracy [%] (validation standard ULOV): 29.0%
- Short-time stability (24h, 4°C, without daylight) Accuracy [%] (validation standard ULOV): 84.2%
- Short-time stability (24h, RT, with daylight) Accuracy [%] (validation standard ULOV): 63.9%
- Short-time stability (24h, RT, without daylight) Accuracy [%] (validation standard ULOV): 63.8%

SMILES: Cc1ccc(Nc2nccc(N(C)c3ccc4c(C)n(C)nc4c3)n2)cc1S(N)(=O)=O [Pazopanib]
- Short-time stability (24h, 4°C, without daylight) Accuracy [%] (validation standard 2xLLOV): 101.2%
- Short-time stability (24h, RT, with daylight) Accuracy [%] (validation standard 2xLLOV): 103.3%
- Short-time stability (24h, RT, without daylight) Accuracy [%] (validation standard 2xLLOV): 104.3%
- Short-time stability (24h, 4°C, without daylight) Accuracy [%] (validation standard LLOV): 104.1%
- Short-time stability (24h, RT, with daylight) Accuracy [%] (validation standard LLOV): 100.2%
- Short-time stability (24h, RT, without daylight) Accuracy [%] (validation standard LLOV): 105.8%
- Short-time stability (24h, 4°C, without daylight) Accuracy [%] (validation standard MOV): 97.8%
- Short-time stability (24h, RT, with daylight) Accuracy [%] (validation standard MOV): 99.1%
- Short-time stability (24h, RT, without daylight) Accuracy [%] (validation standard MOV): 101.2%
- Short-time stability (24h, 4°C, without daylight) Accuracy [%] (validation standard ULOV): 97.1%
- Short-time stability (24h, RT, with daylight) Accuracy [%] (validation standard ULOV): 102.6%
- Short-time stability (24h, RT, without daylight) Accuracy [%] (validation standard ULOV): 99.1%

SMILES: COc1cc2nccc(Oc3ccc(NC(=O)Nc4cc(C)on4)c(Cl)c3)c2cc1OC [Tivozanib]
- Short-time stability (1h, 56°C) Accuracy [%] (validation standard 2xLLOV): 49.4%
- Short-time stability (24h, 4°C, without daylight) Accuracy [%] (validation standard 2xLLOV): 103.2%
- Short-time stability (24h, RT, with daylight) Accuracy [%] (validation standard 2xLLOV): 104.0%
- Short-time stability (24h, RT, without daylight) Accuracy [%] (validation standard 2xLLOV): 103.9%
- Short-time stability (1h, 56°C) Accuracy [%] (validation standard LLOV): 38.6%
- Short-time stability (24h, 4°C, without daylight) Accuracy [%] (validation standard LLOV): 102.5%
- Short-time stability (24h, RT, with daylight) Accuracy [%] (validation standard LLOV): 99.0%
- Short-time stability (24h, RT, without daylight) Accuracy [%] (validation standard LLOV): 100.8%
- Short-time stability (1h, 56°C) Accuracy [%] (validation standard MOV): 49.6%
- Short-time stability (24h, 4°C, without daylight) Accuracy [%] (validation standard MOV): 100.8%
- Short-time stability (24h, RT, with daylight) Accuracy [%] (validation standard MOV): 103.5%
- Short-time stability (24h, RT, without daylight) Accuracy [%] (validation standard MOV): 105.8%
- Short-time stability (1h, 56°C) Accuracy [%] (validation standard ULOV): 42.5%
- Short-time stability (24h, 4°C, without daylight) Accuracy [%] (validation standard ULOV): 98.0%
- Short-time stability (24h, RT, with daylight) Accuracy [%] (validation standard ULOV): 104.7%
- Short-time stability (24h, RT, without daylight) Accuracy [%] (validation standard ULOV): 103.8%

SMILES: O=C(c1cc(Cc2n[nH]c(=O)c3ccccc23)ccc1F)N1CCN(C(=O)C2CC2)CC1 [Olaparib]
- Short-time stability (1h, 56°C) Accuracy [%] (validation standard 2xLLOV): 64.1%
- Short-time stability (24h, 4°C, without daylight) Accuracy [%] (validation standard 2xLLOV): 101.8%
- Short-time stability (24h, RT, with daylight) Accuracy [%] (validation standard 2xLLOV): 91.3%
- Short-time stability (24h, RT, without daylight) Accuracy [%] (validation standard 2xLLOV): 90.8%
- Short-time stability (1h, 56°C) Accuracy [%] (validation standard LLOV): 80.6%
- Short-time stability (24h, 4°C, without daylight) Accuracy [%] (validation standard LLOV): 110.7%
- Short-time stability (24h, RT, with daylight) Accuracy [%] (validation standard LLOV): 108.3%
- Short-time stability (24h, RT, without daylight) Accuracy [%] (validation standard LLOV): 110.6%
- Short-time stability (1h, 56°C) Accuracy [%] (validation standard MOV): 49.4%
- Short-time stability (24h, 4°C, without daylight) Accuracy [%] (validation standard MOV): 98.6%
- Short-time stability (24h, RT, with daylight) Accuracy [%] (validation standard MOV): 89.4%
- Short-time stability (24h, RT, without daylight) Accuracy [%] (validation standard MOV): 88.9%
- Short-time stability (1h, 56°C) Accuracy [%] (validation standard ULOV): 42.9%
- Short-time stability (24h, 4°C, without daylight) Accuracy [%] (validation standard ULOV): 99.7%
- Short-time stability (24h, RT, with daylight) Accuracy [%] (validation standard ULOV): 99.0%
- Short-time stability (24h, RT, without daylight) Accuracy [%] (validation standard ULOV): 94.2%

SMILES: Nc1cccc2c1CN(C1CCC(=O)NC1=O)C2=O (stereo not shown) [Lenalidomide]
- Short-time stability (1h, 56°C) Accuracy [%] (validation standard 2xLLOV): 39.6%
- Short-time stability (24h, 4°C, without daylight) Accuracy [%] (validation standard 2xLLOV): 107.4%
- Short-time stability (24h, RT, with daylight) Accuracy [%] (validation standard 2xLLOV): 54.9%
- Short-time stability (24h, RT, without daylight) Accuracy [%] (validation standard 2xLLOV): 49.6%
- Short-time stability (24h, 4°C, without daylight) Accuracy [%] (validation standard LLOV): 83.0%
- Short-time stability (24h, RT, with daylight) Accuracy [%] (validation standard LLOV): 81.5%
- Short-time stability (1h, 56°C) Accuracy [%] (validation standard MOV): 20.6%
- Short-time stability (24h, 4°C, without daylight) Accuracy [%] (validation standard MOV): 97.8%
- Short-time stability (24h, RT, with daylight) Accuracy [%] (validation standard MOV): 58.7%
- Short-time stability (24h, RT, without daylight) Accuracy [%] (validation standard MOV): 54.1%
- Short-time stability (1h, 56°C) Accuracy [%] (validation standard ULOV): 18.5%
- Short-time stability (24h, 4°C, without daylight) Accuracy [%] (validation standard ULOV): 90.4%
- Short-time stability (24h, RT, with daylight) Accuracy [%] (validation standard ULOV): 51.9%
- Short-time stability (24h, RT, without daylight) Accuracy [%] (validation standard ULOV): 50.9%

SMILES: C[C@H]1Oc2cc(cnc2N)-c2c(nn(C)c2C#N)CN(C)C(=O)c2ccc(F)cc21 [Lorlatinib]
- Short-time stability (1h, 56°C) Accuracy [%] (validation standard 2xLLOV): 60.0%
- Short-time stability (24h, 4°C, without daylight) Accuracy [%] (validation standard 2xLLOV): 99.8%
- Short-time stability (24h, RT, with daylight) Accuracy [%] (validation standard 2xLLOV): 98.9%
- Short-time stability (24h, RT, without daylight) Accuracy [%] (validation standard 2xLLOV): 99.6%
- Short-time stability (1h, 56°C) Accuracy [%] (validation standard LLOV): 54.3%
- Short-time stability (24h, 4°C, without daylight) Accuracy [%] (validation standard LLOV): 98.8%
- Short-time stability (24h, RT, with daylight) Accuracy [%] (validation standard LLOV): 96.4%
- Short-time stability (24h, RT, without daylight) Accuracy [%] (validation standard LLOV): 97.8%
- Short-time stability (1h, 56°C) Accuracy [%] (validation standard MOV): 57.8%
- Short-time stability (24h, 4°C, without daylight) Accuracy [%] (validation standard MOV): 101.8%
- Short-time stability (24h, RT, with daylight) Accuracy [%] (validation standard MOV): 100.2%
- Short-time stability (24h, RT, without daylight) Accuracy [%] (validation standard MOV): 99.2%
- Short-time stability (1h, 56°C) Accuracy [%] (validation standard ULOV): 50.7%
- Short-time stability (24h, 4°C, without daylight) Accuracy [%] (validation standard ULOV): 97.0%
- Short-time stability (24h, RT, with daylight) Accuracy [%] (validation standard ULOV): 100.4%
- Short-time stability (24h, RT, without daylight) Accuracy [%] (validation standard ULOV): 99.9%
